Experimental data reported in ChEMBL document CHEMBL3425445, “Synthesis, crystal structure and biological evaluation of substituted quinazolinone benzoates as novel antituberculosis agents targeting acetohydroxyacid synthase” (Eur J Med Chem, 2015).
Values after ≈ are worked out from the molar mass of the structure shown.

Assays:
[1] = system: Mycobacterium tuberculosis; experiment: Antitubercular activity against Mycobacterium tuberculosis H37Rv ATCC 27294 assessed as inhibition of bacterial growth after 4 weeks by two-fold dilution technique; type: functional; conditions: H37Rv ATCC 27294, 672 h
[2] = system: Mycobacterium tuberculosis; experiment: Inhibition of Mycobacterium tuberculosis AHAS catalytic subunit assessed as inhibition of acetoin formation using […] as substrate at 100 uM after 1 hr
[3] = Inhibition of Mycobacterium tuberculosis AHAS catalytic subunit assessed as inhibition of acetoin formation using […] as substrate after 1 hr
[4] = system: Mycobacterium tuberculosis; experiment: Antitubercular activity against Mycobacterium tuberculosis H37Rv ATCC 27294 infected in human THP-1 cells assessed as inhibition of intracellular activity at 20 mg/L after 4 days; type: functional; conditions: H37Rv ATCC 27294, THP-1, 96 h
[5] = system: Mycobacterium tuberculosis; experiment: Antitubercular activity against isoniazid, rifampin, streptomycin, ethambutol, amikacin, ofloxacin, kanamycin-susceptible Mycobacterium tuberculosis assessed as inhibition of bacterial growth after 4 weeks by two-fold dilution technique; type: functional; conditions: 672 h
[6] = system: Mycobacterium tuberculosis; experiment: Antitubercular activity against isoniazid, rifampin, streptomycin, ethambutol, amikacin, ofloxacin, kanamycin-susceptible Mycobacterium tuberculosis infected in human THP-1 cells assessed as inhibition of intracellular activity at 20 mg/L after 4 days; type: functional; conditions: THP-1, 96 h
[7] = system: Mycobacterium tuberculosis; experiment: Antitubercular activity against Mycobacterium tuberculosis H37Rv ATCC 27294 infected in human THP-1 cells assessed as inhibition of intracellular activity at 10 mg/L after 4 days; type: functional; conditions: H37Rv ATCC 27294, THP-1, 96 h
[8] = system: Mycobacterium tuberculosis; experiment: Antitubercular activity against isoniazid, rifampin, streptomycin, ethambutol, amikacin, ofloxacin, kanamycin-susceptible Mycobacterium tuberculosis infected in human THP-1 cells assessed as inhibition of intracellular activity at 10 mg/L after 4 days; type: functional; conditions: THP-1, 96 h
[9] = system: THP-1; experiment: Cytotoxicity against human THP1 cells at 20 mg/L by MTT assay; type: cell-based

Row | SMILES | MIC [1] [µg/mL] | inhibition [2] [%] | IC50 [3] [µM] | inhibition at 20 µg/mL [4] [%] | MIC [5] [µg/mL] | inhibition at 20 µg/mL [6] [%] | inhibition at 10 µg/mL [7] [%] | inhibition at 10 µg/mL [8] [%] | Activity [9]
1 | O=C(On1c(-c2ccccc2)nc2ccccc2c1=O)c1cccc(F)c1 | > 50 | 26 | > 100 | – | – | – | – | – | –
2 | COC(=O)c1ccccc1S(=O)(=O)NC(=O)Nc1nc(C)cc(C)n1 [SULFOMETURON METHYL] | 10 (≈ 27.4 µM) | – | 4.79 | 32.5 | 10 (≈ 27.4 µM) | 32.3 | 15.9 | 15.5 | –
3 | O=C(On1c(-c2cccc(F)c2)nc2ccccc2c1=O)c1cccc(F)c1 | 2.5 (≈ 6.61 µM) | 72 | 6.5 | 49.5 | 2.5 (≈ 6.61 µM) | 48.2 | 24.8 | 23.4 | Non-toxic
4 | O=C(On1c(-c2ccccc2)nc2ccccc2c1=O)c1cccc(Cl)c1 | 5 (≈ 13.3 µM) | 80.5 | 12.1 | – | 5 (≈ 13.3 µM) | – | – | – | –
5 | Cc1ccc(C(=O)On2c(-c3ccccc3)nc3ccccc3c2=O)cc1 | > 50 | 18 | > 100 | – | – | – | – | – | –
6 | O=C(On1c(-c2ccccc2)nc2ccccc2c1=O)c1ccccc1 | > 50 | 20.5 | > 100 | – | – | – | – | – | –
7 | Cc1ccccc1C(=O)On1c(-c2ccccc2)nc2ccccc2c1=O | > 50 | 16.5 | > 100 | – | – | – | – | – | –
8 | COc1cccc(-c2nc3ccccc3c(=O)n2OC(=O)c2cccc(C(F)(F)F)c2)c1 | 10 (≈ 22.7 µM) | 73.2 | 9.57 | – | 10 (≈ 22.7 µM) | – | – | – | –
9 | O=C(On1c(-c2ccccc2)nc2ccccc2c1=O)c1cccc([N+](=O)[O-])c1 | 5 (≈ 12.9 µM) | 91.5 | 9.68 | – | 5 (≈ 12.9 µM) | – | – | – | –
10 | Cc1cccc(C(=O)On2c(-c3ccccc3)nc3ccccc3c2=O)c1 | > 50 | 4 | > 100 | – | – | – | – | – | –
11 | O=C(On1c(-c2cccc(F)c2)nc2ccccc2c1=O)c1cccc(C(F)(F)F)c1 | > 50 | 30 | > 100 | – | – | – | – | – | –
12 | COc1cccc(-c2nc3ccccc3c(=O)n2OC(=O)c2cccc(Cl)c2)c1 | > 50 | 23.5 | > 100 | – | – | – | – | – | –
13 | O=C(On1c(-c2cccc(F)c2)nc2ccccc2c1=O)c1ccccc1 | 50 (≈ 139 µM) | 26 | > 100 | – | – | – | – | – | –
14 | Cc1cccc(-c2nc3ccccc3c(=O)n2OC(=O)c2cccc(C(F)(F)F)c2)c1 | > 50 | 9.5 | > 100 | – | – | – | – | – | –
15 | CO[C@H]1/C=C/O[C@@]2(C)Oc3c(C)c(O)c4c(O)c(c(/C=N/N5CCN(C)CC5)c(O)c4c3C2=O)NC(=O)/C(C)=C\C=C\[C@H](C)[C@H](O)[C@@H](C)[C@@H](O)[C@@H](C)[C@H](OC(C)=O)[C@@H]1C [RIFAMPIN] | – | – | – | – | 0.4 (≈ 0.486 µM) | – | – | – | –
16 | Cc1ccc(C(=O)On2c(-c3cccc(C)c3)nc3ccccc3c2=O)cc1 | > 50 | 33 | > 100 | – | – | – | – | – | –
17 | Cc1cccc(-c2nc3ccccc3c(=O)n2OC(=O)c2ccc(Cl)cc2)c1 | > 50 | 0 | > 100 | – | – | – | – | – | –
18 | Cc1ccccc1-c1nc2ccccc2c(=O)n1OC(=O)c1cccc(F)c1 | > 50 | 30 | > 100 | – | – | – | – | – | –
19 | O=C(On1c(-c2ccccc2)nc2ccccc2c1=O)c1ccc(Cl)cc1 | > 50 | 7.5 | > 100 | – | – | – | – | – | –
20 | Cc1cccc(C(=O)On2c(-c3cccc(C)c3)nc3ccccc3c2=O)c1 | > 50 | 10.5 | > 100 | – | – | – | – | – | –
21 | COc1cccc(C(=O)On2c(-c3ccccc3)nc3ccccc3c2=O)c1 | > 50 | 27 | > 100 | – | – | – | – | – | –
22 | COc1cccc(C(=O)On2c(-c3cccc(F)c3)nc3ccccc3c2=O)c1 | 50 (≈ 128 µM) | 28 | > 100 | – | – | – | – | – | –
23 | NNC(=O)c1ccncc1 [ISONIAZID] | – | – | – | – | 0.2 (≈ 1.46 µM) | – | – | – | –
24 | O=C(On1c(-c2cccc(F)c2)nc2ccccc2c1=O)c1cccc(Cl)c1 | > 50 | 42.5 | > 100 | – | – | – | – | – | –
25 | Cc1cccc(-c2nc3ccccc3c(=O)n2OC(=O)c2cccc(F)c2)c1 | > 50 | 9.5 | > 100 | – | – | – | – | – | –
26 | Cc1cccc(-c2nc3ccccc3c(=O)n2OC(=O)c2ccccc2)c1 | > 50 | 40.5 | > 100 | – | – | – | – | – | –
27 | COc1cccc(-c2nc3ccccc3c(=O)n2OC(=O)c2cccc([N+](=O)[O-])c2)c1 | 5 (≈ 12 µM) | 94 | 8.74 | – | 5 (≈ 12 µM) | – | – | – | –
